Data published in patent publication US20230391752A1, “PYRROLIDINE-3-CARBOXAMIDE DERIVATIVES AND RELATED USES” (Chulalongkorn University, priority 2020, published 2023).

Each compound was assayed on HBV (assay: In vitro anti-HBV activity in HepG2.2.15 cell line (intracellular HBV DNA by qPCR at 1 μM)). Settings: Hepatitis B virus, 144 h; HepG2.2.15 cells, 1 μM compound, 6 days, intracellular HBV DNA as percentage compared to vehicle control (0.5% DMSO).
Type: cell-based
Protocol: The stable transfected HBV cell line, called HepG2.2.15 cells was a valuable model with high reproducibility and commonly used for drug screening. To identify the anti-HBV activity, HepG2.2.15 cells were seeded at 5×10^5 cells/well with high glucose Dulbecco's modified Eagle medium (DMEM) containing 10% heat inactivated fetal bovine serum (FBS), 300 mg/L G418, non-essential amino acids (NEAA) 100 units/ml Antibiotic-Antimycotic, and allowed to stand for an overnight in an incubator set at 37° C. and 5% C02. HepG2.2.15 cells in each well were treated with the medium containing a compound (1 μM with 0.5% dimethyl sulfoxide (DMSO final concentration) for three days in the incubator. After that the medium was removed and fresh medium containing the compound was added to the cells for another 3 days. After 6 days of treatment, intracellular HBV DNA was extracted and determined by using quantitative real-time PCR (qPCR) technique with specific primers. Intrahepatic HBV DNA viral load was reported as percentage compared to vehicle control (0.5% DMSO) as shown in Table A.
“B” means % ranging between 80 and 90; “C” means % ranging between 70 and 80; “D” means % ranging between 60 and 70; “E” means % ranging between 45 and 60, “F” means %<45.

Row | SMILES | activity at 1 µM [%]
1 | Cc1ccc(C(=O)N2CC[C@H](C(=O)Nc3cc(F)c(F)c(F)c3)C2)[nH]1 [Example 1, (S)-1-(5-methyl-1H-pyrrole-2-carbonyl)-N-(3,4,5-trifluorophenyl)pyrrolidine-3-carboxamide] | 45 to 60
2 | O=C(Nc1cc(F)c(F)c(F)c1)[C@H]1CCN(C(=O)c2sccc2Cl)C1 [Example 3, (S)-1-(3-chlorothiophene-2-carbonyl)-N-(3,4,5-trifluorophenyl)pyrrolidine-3-carboxamide] | 70 to 80
3 | Cc1cc(Cl)c(C(=O)N2CC[C@H](C(=O)Nc3cc(F)c(F)c(F)c3)C2)s1 [Example 5, (S)-1-(3-chloro-5-methylthiophene-2-carbonyl)-N-(3,4,5-trifluorophenyl)pyrolidine-3-carboxamide] | 80 to 90
4 | O=C(Nc1cc(F)c(F)c(F)c1)[C@H]1CCN(C(=O)c2cccc3cc[nH]c23)C1 [Example 6, (S)-1-(1H-indole-7-carbonyl)-N-(3,4,5-trifluorophenyl)pyrrolidine-3-carboxamide] | > 90
5 | O=C(Nc1cc(F)c(F)c(F)c1)[C@H]1CCN(C(=O)c2cc3sccc3[nH]2)C1 [Example 7, (S)-1-(4H-thieno[3,2-b]pyrrole-5-carbonyl)-N-(3,4,5-trifluoro-phenyl)pyrrolidine-3-carboxamide] | 60 to 70
6 | N#Cc1ccc2[nH]c(C(=O)N3CC[C@H](C(=O)Nc4cc(F)c(F)c(F)c4)C3)cc2c1 [Example 8, (S)-1-(5-cyano-1H-indole-2-carbonyl)-N-(3,4,5-trifluorophenyl)pyrrolidine-3-carboxamide] | 80 to 90
7 | O=C(Nc1cc(F)c(F)c(F)c1)[C@H]1CCN(C(=O)c2cc3occc3[nH]2)C1 [Example 9, (S)-1-(4H-furo[3,2-b]pyrrole-5-carbonyl)-N-(3,4,5-trifluorophenyl)pyrrolidine-3-carboxamide] | 80 to 90
8 | O=C(Nc1cc(F)c(F)c(Br)c1)[C@H]1CCN(C(=O)c2cc3ccccc3[nH]2)C1 [Example 10, (S)—N-(3-bromo-4,5-difluorophenyl)-1-(1H-indole-2-carbonyl)pyrrolidine-3-carboxamide] | 70 to 80
9 | O=C(Nc1cc(F)c(F)c(F)c1)[C@H]1CCN(C(=O)c2ccc(C(F)F)[nH]2)C1 [Example 11, (S)-1-(5-(difluoromethyl)-1H-pyrrole-2-carbonyl)-N-(3,4,5-trifluorophenyl)pyrrolidine-3-carboxamide] | 70 to 80
10 | COc1cc2cc(C(=O)N3CC[C@H](C(=O)Nc4cc(F)c(F)c(F)c4)C3)[nH]c2cn1 [Example 12, (S)-1-(5-methoxy-1H-pyrrolo[2,3-c]pyridine-2-carbonyl)-N-(3,4,5-trifluorophenyl)pyrrolidine-3-carboxamide] | 80 to 90
11 | Cc1ccc2cc(C(=O)N3CC[C@H](C(=O)Nc4cc(F)c(F)c(F)c4)C3)[nH]c2c1 [Example 13, (S)-1-(6-methyl-1H-indole-2-carbonyl)-N-(3,4,5-trifluorophenyl)pyrrolidine-3-carboxamide] | 60 to 70
12 | O=C(Nc1cc(F)c(F)c(F)c1)[C@H]1CCN(C(=O)c2cc3ncccc3[nH]2)C1 [Example 14, (S)-1-(1H-pyrrolo[3,2-b]pyridine-2-carbonyl)-N-(3,4,5-trifluorophenyl)pyrrolidine-3-carboxamide] | 70 to 80
13 | Cc1cc(C(=O)N2CC[C@H](C(=O)Nc3cc(F)c(F)c(F)c3)C2)[nH]c1C [Example 15, (S)-1-(4,5-dimethyl-1H-pyrrole-2-carbonyl)-N-(3,4,5-trifluorophenyl)pyrrolidine-3-carboxamide] | 60 to 70
14 | O=C(Nc1cc(F)c(F)c(F)c1)[C@H]1CCN(C(=O)c2[nH]ccc2Cl)C1 [Example 16, (S)-1-(3-chloro-1H-pyrrole-2-carbonyl)-N-(3,4,5-trifluorophenyl)pyrrolidine-3-carboxamide] | > 90
